Measurements from BindingDB's records for doi:10.1021/jm9604383 (Goethe-University Frankfurt, 2021).
Each block holds one molecule with its values, some of them ahead of it.

Key:
[1] = biological target: T1, Palmitoleoyl-protein carboxylesterase NOTUM (Homo sapiens, UniProt Q6P988); test: Inhibition of human notum using OTPS as substrate incubated for 16 hrs by fluorescent based assay
T1 sequence (Q6P988 whole entry): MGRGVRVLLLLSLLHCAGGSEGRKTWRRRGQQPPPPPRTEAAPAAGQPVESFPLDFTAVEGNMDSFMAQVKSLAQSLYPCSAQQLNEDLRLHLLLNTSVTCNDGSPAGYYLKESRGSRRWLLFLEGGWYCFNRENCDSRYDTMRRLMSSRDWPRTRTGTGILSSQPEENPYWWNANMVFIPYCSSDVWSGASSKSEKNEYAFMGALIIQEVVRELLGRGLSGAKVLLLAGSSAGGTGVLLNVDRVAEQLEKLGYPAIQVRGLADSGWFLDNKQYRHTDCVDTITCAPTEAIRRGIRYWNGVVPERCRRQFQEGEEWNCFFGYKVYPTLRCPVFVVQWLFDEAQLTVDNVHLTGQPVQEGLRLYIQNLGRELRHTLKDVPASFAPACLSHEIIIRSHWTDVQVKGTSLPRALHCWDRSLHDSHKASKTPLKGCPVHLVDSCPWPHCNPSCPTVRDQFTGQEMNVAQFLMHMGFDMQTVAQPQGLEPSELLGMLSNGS

Adenosine receptor A1 = biological target: T2, Adenosine receptor A1 (Homo sapiens, UniProt P30542); test: Binding affinity to human A1 adenosine receptor assessed as inhibition constant
T2 sequence (P30542 whole entry): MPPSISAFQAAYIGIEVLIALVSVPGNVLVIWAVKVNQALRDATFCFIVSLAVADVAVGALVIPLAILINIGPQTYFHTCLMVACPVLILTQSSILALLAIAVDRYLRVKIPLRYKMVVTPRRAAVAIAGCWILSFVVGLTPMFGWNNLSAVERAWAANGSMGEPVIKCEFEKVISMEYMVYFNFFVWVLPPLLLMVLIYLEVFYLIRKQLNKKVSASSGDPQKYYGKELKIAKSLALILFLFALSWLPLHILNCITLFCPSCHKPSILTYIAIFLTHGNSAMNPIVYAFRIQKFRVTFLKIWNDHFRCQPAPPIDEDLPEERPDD

Adenosine receptor A3 [2] = biological target: T3, Adenosine receptor A3 (Homo sapiens, UniProt P0DMS8); test: Binding affinity to human A3 adenosine receptor assessed as inhibition constant
T3 sequence (P0DMS8 whole entry): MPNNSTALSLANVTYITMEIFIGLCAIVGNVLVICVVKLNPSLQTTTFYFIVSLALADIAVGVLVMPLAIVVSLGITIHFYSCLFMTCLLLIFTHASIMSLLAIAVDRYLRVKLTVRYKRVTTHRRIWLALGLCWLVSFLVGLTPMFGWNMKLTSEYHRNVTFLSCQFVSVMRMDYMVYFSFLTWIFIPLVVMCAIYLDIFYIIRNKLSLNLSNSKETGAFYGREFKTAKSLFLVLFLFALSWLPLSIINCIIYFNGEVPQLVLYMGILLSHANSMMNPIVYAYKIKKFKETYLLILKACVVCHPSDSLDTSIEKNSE

Adenosine receptor A3 [3] = biological target: T3, Adenosine receptor A3; test: Displacement of [1251]AB-MEC from human A3 receptor assessed as inhibition constant
Adenosine receptor A2b [4] = biological target: T4, Adenosine receptor A2b (Homo sapiens, UniProt P29275); test: Displacement of [3H]DPCPX to human A2B adenosine receptor derived from HEK cells assessed as inhibition constant
T4 sequence (P29275 whole entry): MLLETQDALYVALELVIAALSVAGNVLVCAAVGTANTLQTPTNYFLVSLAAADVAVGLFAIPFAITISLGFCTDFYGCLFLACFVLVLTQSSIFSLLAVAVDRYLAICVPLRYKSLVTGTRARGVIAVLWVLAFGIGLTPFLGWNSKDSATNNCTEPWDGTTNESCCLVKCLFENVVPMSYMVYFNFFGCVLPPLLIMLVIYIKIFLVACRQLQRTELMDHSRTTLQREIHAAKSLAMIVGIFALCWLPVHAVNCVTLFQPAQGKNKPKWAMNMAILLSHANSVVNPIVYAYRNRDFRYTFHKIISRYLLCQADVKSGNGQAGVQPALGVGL

Adenosine receptor A2b [5] = biological target: T4, Adenosine receptor A2b; test: Inhibition of human A2b adenosine receptor

- IC50 [1]: 19000 nM
Structure (SMILES): Cn1c(=O)c2c(ncn2C)n(C)c1=O

- Ki (Adenosine receptor A3 [3]): 229 nM
Structure (SMILES): CCCCn1c(=O)c2c(ncn2[C@@H]2O[C@H](C(=O)NC)[C@@H](O)[C@H]2O)n(CCCC)c1=O [5-(1,3-Dibutyl-2,6-dioxo-1,2,3,6-tetrahydro-purin-7-yl)-3,4-dihydroxy-tetrahydro-furan-2-carboxylic acid methylamide]

- IC50 (Adenosine receptor A2b [5]): 130000 nM
Structure (SMILES): Cn1cnc2c1c(=O)[nH]c(=O)n2C [theobromine]

Continued, molecule first:

Structure (SMILES): CCCn1c(=O)c2nc(-c3ccc(S(=O)(=O)NCCN(C)C)cc3)[nH]c2n(CCC)c1=O
- Ki (Adenosine receptor A1): 6.5 nM

Structure (SMILES): CCCn1c(=O)c2nc(-c3ccc(OCC(N)=O)cc3O)[nH]c2n(CCC)c1=O
- Ki (Adenosine receptor A1): 6.5 nM

Structure (SMILES): CC[C@@H]1Cn2c(c3nc(-c4cc(Cl)cc(Cl)c4Cl)nc-3n(C)c2=O)N1
- Ki (Adenosine receptor A3 [2]): 0.433 nM

Structure (SMILES): CCCn1c(=O)[nH]c2nc(-c3cnn(Cc4noc(-c5ccc(Cl)cc5)n4)c3)[nH]c2c1=O [8-(1-((5-(4-chlorophenyl)-1,2,4-oxadiazol-3-yl)methyl)-1H-pyrazol-4-yl)-1-propyl-1H-purine-2,6(3H,7H)-dione]
- Ki (Adenosine receptor A2b [4]): 5.5 nM

Structure (SMILES): CCCn1c(=O)c2nc(C3CC4CC3C3OC43)[nH]c2n(CCC)c1=O (stereo not drawn) [8-(3-Oxa-tricyclo[3.2.1.0*2,4*]oct-6-yl)-1,3-dipropyl-3,7-dihydro-purine-2,6-dione]
- Ki (Adenosine receptor A1): 0.95 nM
